Source: PubChem BioAssay (NCI)
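1) Cells in 96-well plates. 2) Compound, 48 h, 5 concentrations. 3) Linear interpolation between surrounding doses. 4) Unreached endpoint = highest concentration. GI50: concentration for 50% inhibition of growth. The concentration for full growth arrest is given as TGI.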

Assays:
Test in all cases: NCI-60 cell line screen, 48 h
RXF 393 renal = test system: RXF 393 renal
SN12C renal = test system: SN12C renal
SNB-19 CNS = test system: SNB-19 CNS
NCI-H226 lung = test system: NCI-H226 lung
ACHN renal = test system: ACHN renal
TK-10 renal = test system: TK-10 renal
UACC-62 melanoma = test system: UACC-62 melanoma
MALME-3M melanoma = test system: MALME-3M melanoma
M14 melanoma = test system: M14 melanoma
K-562 leukemia = test system: K-562 leukemia
U251 CNS = test system: U251 CNS
A498 renal = test system: A498 renal
PC-3 prostate = test system: PC-3 prostate
LOX IMVI melanoma = test system: LOX IMVI melanoma
HCT-15 colon = test system: HCT-15 colon
SK-OV-3 ovarian = test system: SK-OV-3 ovarian
MDA-MB-468 breast = test system: MDA-MB-468 breast
DU-145 prostate = test system: DU-145 prostate
CAKI-1 renal = test system: CAKI-1 renal
SW-620 colon = test system: SW-620 colon
BT-549 breast = test system: BT-549 breast
IGROV1 ovarian = test system: IGROV1 ovarian
A549 NSCLC = test system: A549 NSCLC
NCI-H522 lung = test system: NCI-H522 lung
RPMI-8226 leukemia = test system: RPMI-8226 leukemia
COLO 205 colon = test system: COLO 205 colon
NCI/ADR-RES ovarian = test system: NCI/ADR-RES ovarian
HOP-62 NSCLC = test system: HOP-62 NSCLC
KM12 colon = test system: KM12 colon
SR leukemia = test system: SR leukemia
SF-539 CNS = test system: SF-539 CNS
MDA-MB-231 breast = test system: MDA-MB-231 breast
OVCAR-4 ovarian = test system: OVCAR-4 ovarian
NCI-H23 lung = test system: NCI-H23 lung
HCT-116 colon = test system: HCT-116 colon
MDA-MB-435 = test system: MDA-MB-435
HS 578T breast = test system: HS 578T breast
EKVX NSCLC = test system: EKVX NSCLC
OVCAR-5 ovarian = test system: OVCAR-5 ovarian
SK-MEL-2 melanoma = test system: SK-MEL-2 melanoma
UACC-257 melanoma = test system: UACC-257 melanoma
HCC-2998 colon = test system: HCC-2998 colon
MCF7 breast = test system: MCF7 breast
UO-31 renal = test system: UO-31 renal
HOP-92 NSCLC = test system: HOP-92 NSCLC
SK-MEL-28 melanoma = test system: SK-MEL-28 melanoma
T-47D breast = test system: T-47D breast
HL-60(TB) leukemia = test system: HL-60(TB) leukemia
SF-268 CNS = test system: SF-268 CNS
NCI-H460 lung = test system: NCI-H460 lung
SNB-75 CNS = test system: SNB-75 CNS
SK-MEL-5 melanoma = test system: SK-MEL-5 melanoma
OVCAR-8 ovarian = test system: OVCAR-8 ovarian
OVCAR-3 ovarian = test system: OVCAR-3 ovarian
SF-295 CNS = test system: SF-295 CNS
CCRF-CEM leukemia = test system: CCRF-CEM leukemia
786-0 renal = test system: 786-0 renal
MOLT-4 leukemia = test system: MOLT-4 leukemia
HT29 colon = test system: HT29 colon

With `Cc1cc2nc3c4ccccc4n(CCCN(C)C)c3nc2cc1C` the GI50 (RXF 393 renal) was 2280 nM, the TGI (RXF 393 renal) was 7.09 µM and the GI50 (SN12C renal) was 2330 nM. It also gave a TGI (SN12C renal) of 10.1 µM, a GI50 (SNB-19 CNS) of 2990 nM and a TGI (SNB-19 CNS) of 11.5 µM. The GI50 (NCI-H226 lung) was 2380 nM, the TGI (NCI-H226 lung) was 9.14 µM and the GI50 (ACHN renal) was 1730 nM. It also gave a TGI (ACHN renal) of 4.91 µM, a GI50 (TK-10 renal) of 2580 nM and a TGI (TK-10 renal) of 8.64 µM. It also gave a GI50 (UACC-62 melanoma) of 1890 nM, a TGI (UACC-62 melanoma) of 4.97 µM and a GI50 (MALME-3M melanoma) of 1820 nM. It also gave a TGI (MALME-3M melanoma) of 3.91 µM, a GI50 (M14 melanoma) of 1690 nM and a TGI (M14 melanoma) of 3.5 µM. For the same molecule, the GI50 (K-562 leukemia) was 2520 nM, the TGI (K-562 leukemia) was 10.2 µM and the GI50 (U251 CNS) was 2000 nM. The TGI (U251 CNS) was 6.42 µM, the GI50 (A498 renal) was 3.97 µM and the TGI (A498 renal) was 13 µM. The GI50 (PC-3 prostate) was 2710 nM, the TGI (PC-3 prostate) was 17.3 µM and the GI50 (LOX IMVI melanoma) was 1350 nM. The TGI (LOX IMVI melanoma) was 2870 nM, the GI50 (HCT-15 colon) was 1800 nM and the TGI (HCT-15 colon) was 3.56 µM. It also gave a GI50 (SK-OV-3 ovarian) of 2050 nM, a TGI (SK-OV-3 ovarian) of 5.93 µM and a GI50 (MDA-MB-468 breast) of 2460 nM. The TGI (MDA-MB-468 breast) was 7.54 µM, the GI50 (DU-145 prostate) was 3.16 µM and the TGI (DU-145 prostate) was 9.57 µM. For the same molecule, the GI50 (CAKI-1 renal) was 2080 nM, the TGI (CAKI-1 renal) was 7.36 µM and the GI50 (SW-620 colon) was 1720 nM. For the same molecule, the TGI (SW-620 colon) was 5.45 µM, the GI50 (BT-549 breast) was 2510 nM and the TGI (BT-549 breast) was 9.68 µM. For the same molecule, the GI50 (IGROV1 ovarian) was 1760 nM, the TGI (IGROV1 ovarian) was 4.11 µM and the GI50 (A549 NSCLC) was 1500 nM. The TGI (A549 NSCLC) was 4.04 µM, the GI50 (NCI-H522 lung) was 1440 nM and the TGI (NCI-H522 lung) was 3.45 µM. For the same molecule, the GI50 (RPMI-8226 leukemia) was 2650 nM, the TGI (RPMI-8226 leukemia) was 13.1 µM and the GI50 (COLO 205 colon) was 1320 nM. It also gave a TGI (COLO 205 colon) of 2850 nM, a GI50 (NCI/ADR-RES ovarian) of 1410 nM and a TGI (NCI/ADR-RES ovarian) of 3.57 µM. It also gave a GI50 (HOP-62 NSCLC) of 1570 nM, a TGI (HOP-62 NSCLC) of 5 µM and a GI50 (KM12 colon) of 3.31 µM. The TGI (KM12 colon) was 11.3 µM, the GI50 (SR leukemia) was 2030 nM and the TGI (SR leukemia) was 6.94 µM. It also gave a GI50 (SF-539 CNS) of 2160 nM, a TGI (SF-539 CNS) of 5.51 µM and a GI50 (MDA-MB-231 breast) of 1940 nM. The TGI (MDA-MB-231 breast) was 4.79 µM, the GI50 (OVCAR-4 ovarian) was 2650 nM and the TGI (OVCAR-4 ovarian) was 8.11 µM. The GI50 (NCI-H23 lung) was 1710 nM, the TGI (NCI-H23 lung) was 4.1 µM and the GI50 (HCT-116 colon) was 1770 nM. The TGI (HCT-116 colon) was 9 µM, the GI50 (MDA-MB-435) was 2090 nM and the TGI (MDA-MB-435) was 4.52 µM. It also gave a GI50 (HS 578T breast) of 2950 nM, a TGI (HS 578T breast) of 14.8 µM and a GI50 (EKVX NSCLC) of 3.01 µM. For the same molecule, the TGI (EKVX NSCLC) was 10.1 µM, the GI50 (OVCAR-5 ovarian) was 2340 nM and the TGI (OVCAR-5 ovarian) was 6.87 µM. It also gave a GI50 (SK-MEL-2 melanoma) of 1680 nM, a TGI (SK-MEL-2 melanoma) of 3.21 µM and a GI50 (UACC-257 melanoma) of 1840 nM. It also gave a TGI (UACC-257 melanoma) of 4.41 µM, a GI50 (HCC-2998 colon) of 1740 nM and a TGI (HCC-2998 colon) of 3.83 µM. It also gave a GI50 (MCF7 breast) of 1950 nM, a TGI (MCF7 breast) of 4.88 µM and a GI50 (UO-31 renal) of 600 nM. It also gave a TGI (UO-31 renal) of 3.27 µM, a GI50 (HOP-92 NSCLC) of 1890 nM and a TGI (HOP-92 NSCLC) of 9.4 µM. The GI50 (SK-MEL-28 melanoma) was 3.06 µM, the TGI (SK-MEL-28 melanoma) was 9.72 µM and the GI50 (T-47D breast) was 2720 nM. For the same molecule, the TGI (T-47D breast) was 9.11 µM, the GI50 (HL-60(TB) leukemia) was 2190 nM and the TGI (HL-60(TB) leukemia) was 5.43 µM. The GI50 (SF-268 CNS) was 2950 nM, the TGI (SF-268 CNS) was 10.1 µM and the GI50 (NCI-H460 lung) was 2310 nM. The TGI (NCI-H460 lung) was 6.76 µM, the GI50 (SNB-75 CNS) was 1850 nM and the TGI (SNB-75 CNS) was 10.2 µM. The GI50 (SK-MEL-5 melanoma) was 2210 nM, the TGI (SK-MEL-5 melanoma) was 5.12 µM and the GI50 (OVCAR-8 ovarian) was 1320 nM. The TGI (OVCAR-8 ovarian) was 4.08 µM, the GI50 (OVCAR-3 ovarian) was 2460 nM and the TGI (OVCAR-3 ovarian) was 6 µM. It also gave a GI50 (SF-295 CNS) of 2290 nM, a TGI (SF-295 CNS) of 8.79 µM and a GI50 (CCRF-CEM leukemia) of 3.05 µM. The TGI (CCRF-CEM leukemia) was 11.7 µM, the GI50 (786-0 renal) was 3000 nM and the TGI (786-0 renal) was 11.8 µM. For the same molecule, the GI50 (MOLT-4 leukemia) was 1940 nM, the TGI (MOLT-4 leukemia) was 6.41 µM and the GI50 (HT29 colon) was 1450 nM. It also gave a TGI (HT29 colon) of 4.53 µM.
